The values that follow come from US12544388B2, “Compound for treating and/or preventing diseases caused by coronavirus and use thereof” (SHANGHAITECH UNIVERSITY, priority 2020, dated 2026).

As usually defined, the IC50 is the concentration that gives 50% inhibition.

The target of data set [1] is SARS-CoV-2 papain-like protease (Severe acute respiratory syndrome coronavirus 2, UniProt P0DTD1). It is filed as biochemical. As to conditions: for inhibition of papain-like protease activity versus negative control: 50 μM inhibitor, 0.2 μM enzyme (FIG. 4, FIG. 5).
For data set [2] the following is noted: Phase I, patients with advanced solid tumors; cited from earlier work.
A short description of a further data set: in vitro. Particulars: African green monkey.

Regarding `Br.COCCn1c2c([n+](Cc3cnccn3)c1C)C(=O)c1ccccc1C2=O` [YM155, Sepantronium Bromide], the IC50 in data set [1] (200 nM enzyme, 20 μM substrate, 10 min room temperature, read-out: IC50, inhibitory activity on novel coronavirus papain-like protease) is 2.47 µM. For the same molecule, the “MTD (maximum tolerated dose)” value in data set [2] is 8.0 mg/m^2/d. Moreover, in the data set “in vitro”, the CC50 was more than 133 µM.

Regarding `C[C@H]1COC2=C1C(=O)C(=O)c1c2ccc2c1CCCC2(C)C` [cryptotanshinone, Cryptotanshinone], the “inhibition of papain-like protease activity versus negative control” value in data set [1] is reported as “significantly inhibit”. The CC50 in “in vitro” was more than 300 µM.

`Cc1coc2c1C(=O)C(=O)c1c-2ccc2c(C)cccc12` [tanshinone I, Tanshinone I]: in data set [1], the “inhibition of papain-like protease activity versus negative control” value was “significantly inhibit”. This molecule returned a CC50 in the data set “in vitro” of more than 300 µM.
